According to patent US20230248723A1, “PYRROLO[2,3-B]PYRAZINE COMPOUNDS AS CCCDNA INHIBITORS FOR THE TREATMENT OF HEPATITIS B VIRUS (HBV) INFECTION” (Hoffmann-La Roche Inc., priority 2017, published 2023):
pIC50: −log10 of the molar value. Where two headings read alike, the source gives them in different places.

Legend:
Assay type in all cases: cell-based
pgRNA = pgRNA assay (branched DNA), HBV-infected PHH; conditions: Hepatitis B virus
Protocol: (§1) Fresh primary human hepatocytes (PXB-PHH) harvested from humanized mice (uPA/SCID mice)—herein called PHH—were obtained from PhoenixBio Co., Ltd (Japan). Cells were seeded on a collagen I-coated plate at the following cell density: 35,000 cells/well (384-well), 70,000 cells/well (96-well), or, 400,000 cells/well (24-well) in modified hepatocyte clonal growth medium (dHCGM). dHCGM is a DMEM medium containing 100 U/ml Penicillin, 100 μg/ml Streptomycin, 20 mM Hopes, 44 mM NaHCO3, 15 μg/ml L-proline, 0.25 μg/ml insulin, 50 nM Dexamethazone, 5 ng/ml EGF, 0.1 mM Asc-2P, 2% DMSO and 10% FBS (Ishida et al., 2015). Cells were cultured at 37° C. incubator in a humidified atmosphere with 5% CO2. Culture medium was replaced 24 h post-plating and every 2 days until harvest.
Following 4 day of maturation with 1 μM MB-1, HLC were incubated with HBV (purified from CHB individuals) at multiplicity of infection (MOI) 10-40 without PEG for 24 hr; virus inoculum was removed the following day. […] Compound treatment in HLC and PHH was started at day 3 post infection. Compound (in powder) was dissolved in DMSO; the final concentration of DMSO added to cells is 1%. Fresh compound was replenished every 2 day until cells were harvested at day 10 (PHH), or day 14 (HLC). Compound effect on HBV and cellular toxicity was measured by multiplex assay (HBsAg, HBeAg, albumin), branched DNA (pgRNA), or digital PCR (cccDNA) and depicted as % of inhibition compared to DMSO control. Graphs were prepared using Spotfire software.
Levels of pgRNA in infected cells (96-well plate) were measured using QuantiGene Singleplex 2.0 assay (Affymetrix), a hybridization-based assay that utilizes the xMAP™ Luminex magnetic beads and branched DNA (bDNA) signal amplification technology. The assay is performed in 96-well plate according to manufacturer's recommendation. Briefly, cells were lysed and lysates were incubated with HBV probe sets panel at 50-55° C. for 30 min then stored at −80° C. Signal amplification is achieved via sequential hybridization of PreAmplifier, Amplifier, and Label Probe. After adding Streptavidin phycoerythrin (SAPE) substrate, the signal is read using a FlexMap 3D (Luminex) instrument.

cccDNA = cccDNA assay (digital PCR), HBV-infected PHH
Protocol: as §1
Following 4 day of maturation with 1 μM MB-1, HLC were incubated with HBV (purified from CHB individuals) at multiplicity of infection (MOI) 10-40 without PEG for 24 hr; virus inoculum was removed the following day. HBV infection in PHH was performed at MOI 40+4% PEG. Compound treatment in HLC and PHH was started at day 3 post infection. Compound (in powder) was dissolved in DMSO; the final concentration of DMSO added to cells is 1%. Fresh compound was replenished every 2 day until cells were harvested at day 10 (PHH), or day 14 (HLC). Compound effect on HBV and cellular toxicity was measured by multiplex assay (HBsAg, HBeAg, albumin), branched DNA (pgRNA), or digital PCR (cccDNA) and depicted as % of inhibition compared to DMSO control. Graphs were prepared using Spotfire software.
HBV-infected cells (in 384- or 96-well plate) were lysed with Cells-to-CT Lysis Reagents according to manufacturer's instruction (Thermo Scientific). To remove excess of RC-DNA, samples were digested with T5 exonuclease (10 U) (New England Biolabs), at 37° C. for 1 hr; enzyme was inactivated by heating the samples at 80° C. for 15 min. DNA samples (1.2 μl) were added into the digital PCR Master Mix (QuantStudio Digital PCR Kit, Thermo Scientific) containing cccDNA primers 5′-[…] (forward), 5′-[…] (reverse), and […] (probe) (Werle-Lapostolle et al., 2004) in a total volume 5 μl, and loaded into dPCR array using AccuFill System (AB). Each sample was loaded into 4 subarrays/256 through-holes. Digital PCR assay was run on QuantStudio 12K Flex (AB) and data was analyzed by Digital Suite Software (AB).

HBeAg = assay: HBeAg, HBV-infected HepaRG; conditions: Hepatitis B virus

O=C(NC(CO)CO)c1c[nH]c2ncc(C3CC3)nc12 [compound 7]
IC50 (pgRNA; 240 h, patient-derived HBV GT A, MOI 40, day 10 pi, read-out: pgRNA IC50 (μM) Median): 3.58 µM | IC50 (pgRNA; 240 h, patient-derived HBV GT B, MOI 40, day 10 pi, read-out: pgRNA IC50 (μM) Median): 3.13 µM | IC50 (pgRNA; 240 h, patient-derived HBV GT C, MOI 40, day 10 pi, read-out: pgRNA IC50 (μM) Median): 1.64 µM | IC50 (pgRNA; 240 h, patient-derived HBV GT D, MOI 40, day 10 pi (Table 5), read-out: pgRNA IC50 (μM) Median): 1.35 µM | IC50 (pgRNA; HepG2.2.15-derived HBV GT D, MOI 40, read-out: pgRNA IC50 (μM) Median): 12.8 µM | IC50 (pgRNA; HepG2.2.15-derived HBV GT D, MOI 125, read-out: pgRNA IC50 (μM) Median): 11.3 µM | IC50 (pgRNA; patient-derived HBV GT D, MOI 40 (Table 6), read-out: pgRNA IC50 (μM) Median): 1.48 µM | IC50 (pgRNA; patient-derived HBV GT D, MOI 125, read-out: pgRNA IC50 (μM) Median): 2.87 µM | pIC50 (pgRNA; patient-derived HBV, read-out: pgRNA IC50): 5.83 | IC50 (cccDNA; Hepatitis B virus, 240 h, patient-derived HBV GT A, MOI 40, day 10 pi, read-out: cccDNA IC50 (μM) Median): 7.15 µM | IC50 (cccDNA; Hepatitis B virus, 240 h, patient-derived HBV GT B, MOI 40, day 10 pi, read-out: cccDNA IC50 (μM) Median): 6.56 µM | IC50 (cccDNA; Hepatitis B virus, 240 h, patient-derived HBV GT C, MOI 40, day 10 pi, read-out: cccDNA IC50 (μM) Median): 6.2 µM | IC50 (cccDNA; Hepatitis B virus, 240 h, patient-derived HBV GT D, MOI 40, day 10 pi (Table 5), read-out: cccDNA IC50 (μM) Median): 6.69 µM | IC50 (cccDNA; Hepatitis B virus, HepG2.2.15-derived HBV GT D, MOI 40, read-out: cccDNA IC50 (μM) Median): 25 µM | IC50 (cccDNA; Hepatitis B virus, HepG2.2.15-derived HBV GT D, MOI 125, read-out: cccDNA IC50 (μM) Median): 25.2 µM | IC50 (cccDNA; Hepatitis B virus, patient-derived HBV (GT D), read-out: cccDNA IC50 (μM) Median): < 10 µM | pIC50 (cccDNA; Hepatitis B virus, patient-derived HBV GT A-D, read-out: cccDNA IC50s): 5.15 to 5.21 | IC50 (cccDNA; Hepatitis B virus, patient-derived HBV GT D, MOI 40 (Table 6), read-out: cccDNA IC50 (μM) Median): 6.41 µM | IC50 (cccDNA; Hepatitis B virus, patient-derived HBV GT D, MOI 125, read-out: cccDNA IC50 (μM) Median): 6.78 µM | IC50 (cccDNA; patient-derived HBV (GT D), read-out: cccDNA IC50 (μM) Median): 6.76 µM | IC50 (HBeAg; read-out: HBeAg IC50 (μM) Median, HepaRG, HepG2.2.15-derived HBV GT D, MOI 40): 6.11 µM | IC50 (HBeAg; read-out: HBeAg IC50 (μM) Median, HepaRG, HepG2.2.15-derived HBV GT D, MOI 125): 6.55 µM | IC50 (HBeAg; read-out: HBeAg IC50 (μM) Median, HepaRG, patient-derived HBV GT D, MOI 40): 0.41 µM | IC50 (HBeAg; read-out: HBeAg IC50 (μM) Median, HepaRG, patient-derived HBV GT D, MOI 125): 0.52 µM
